Results reported in PubChem BioAssay AID330 (DTP/NCI, 2004).
Several values for one entry are separate records, joined by “and”; a condition that tells them apart may be missing. Equal values may be shown once. Inconclusive results and toxic doses are left out.

Test system: P388 leukemia ip, CD2F1 mice, survival T/C
Assay: NCI In Vivo Anticancer Drug Screen. Data for tumor model P388 Leukemia (intraperitoneal) in CD2F1 (CDF1) mice
Conditions: endpoint: median survival time, higher = longer survival
In short: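 Mice carrying the transplanted tumor received test compound or vehicle. Survival was recorded in each group, and the value is the treated-group measurement divided by that of the vehicle-treated control group.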

[1] = dose: 100.0 mg/kg/injection, schedule: Q04DX002 (ip), vehicle: saline with Tween-80
[2] = dose: 200.0 mg/kg/injection, schedule: Q04DX002 (ip), vehicle: saline with Tween-80
[3] = dose: 60.0 mg/kg/injection, schedule: Q01DX005 (ip), vehicle: saline with Tween-80
[4] = dose: 120.0 mg/kg/injection, schedule: Q01DX005 (ip), vehicle: saline with Tween-80
[5] = dose: 240.0 mg/kg/injection, schedule: Q01DX005 (ip), vehicle: saline with Tween-80
[6] = dose: 50.0 mg/kg/injection, schedule: Q01DX009 (ip), vehicle: Klucel (hydroxypropylcellulose) (HPC)
[7] = dose: 100.0 mg/kg/injection, schedule: Q01DX009 (ip), vehicle: Klucel (hydroxypropylcellulose) (HPC)
[8] = dose: 200.0 mg/kg/injection, schedule: Q01DX009 (ip), vehicle: Klucel (hydroxypropylcellulose) (HPC)
[9] = dose: 50.0 mg/kg/injection, schedule: Q01DX005 (ip), vehicle: saline with Tween-80
[10] = dose: 50.0 mg/kg/injection, schedule: Q01DX009 (ip), vehicle: saline with Tween-80
[11] = dose: 100.0 mg/kg/injection, schedule: Q01DX009 (ip), vehicle: saline with Tween-80
[12] = dose: 200.0 mg/kg/injection, schedule: Q01DX009 (ip), vehicle: saline with Tween-80
[13] = dose: 100.0 mg/kg/injection, schedule: Q04DX002 (ip), vehicle: saline
[14] = dose: 50.0 mg/kg/injection, schedule: Q01DX005 (ip), vehicle: Klucel (hydroxypropylcellulose) (HPC)
[15] = dose: 100.0 mg/kg/injection, schedule: Q01DX005 (ip), vehicle: Klucel (hydroxypropylcellulose) (HPC)
[16] = dose: 200.0 mg/kg/injection, schedule: Q01DX005 (ip), vehicle: Klucel (hydroxypropylcellulose) (HPC)
[17] = dose: 50.0 mg/kg/injection, schedule: Q01DX009 (ip), vehicle: saline

SMILES: c1ccc2c(SCCCCCCCCCSc3c4ccccc4nc4ccccc34)c3ccccc3nc2c1
- T/C (dose: 60.0 mg/kg/injection, schedule: Q01DX005 (ip), vehicle: Klucel (hydroxypropylcellulose) (HPC)): 107 % of control
- T/C (dose: 120.0 mg/kg/injection, schedule: Q01DX005 (ip), vehicle: Klucel (hydroxypropylcellulose) (HPC)): 104 % of control
- T/C (dose: 240.0 mg/kg/injection, schedule: Q01DX005 (ip), vehicle: Klucel (hydroxypropylcellulose) (HPC)): 90 % of control

SMILES: O=C(Nc1ccccc1C(=O)Nc1ccccc1C(=O)O)c1cccnc1
- T/C [1]: 109 % of control
- T/C [2]: 100 % of control

SMILES: CSc1ncnc2c1c1c(N)ncnc1n2C1OC(CO)C(O)C1O (stereo not drawn)
- T/C (dose: 25.0 mg/kg/injection, schedule: Q01DX005 (ip), vehicle: other): 97 % of control
- T/C (dose: 50.0 mg/kg/injection, schedule: Q01DX005 (ip), vehicle: other): 97 % of control
- T/C (dose: 100.0 mg/kg/injection, schedule: Q01DX005 (ip), vehicle: other): 109 % of control
- T/C (dose: 200.0 mg/kg/injection, schedule: Q01DX005 (ip), vehicle: other): 105 % of control

SMILES: OC(COc1c2ccccc2nc2ccccc12)COc1c2ccccc2nc2ccccc12
- T/C [3]: 104 % of control
- T/C [4]: 101 % of control
- T/C [5]: 101 % of control

SMILES: CCCCCCCC(=S)SCCCC(=O)O
- T/C [6]: 100 % of control
- T/C [7]: 100 % of control
- T/C [8]: 99 % of control

SMILES: CC(=O)CS(F)(F)(F)(F)F
- T/C [9]: 105 % of control

SMILES: COC(=O)c1nnn(-c2ccc(Cl)cc2C)c1N
- T/C [3]: 96 % of control
- T/C [4]: 97 % of control
- T/C [5]: 91 % of control

SMILES: C[C@@H]1CN(C(=O)CCOS(C)(=O)=O)[C@@H](C)CN1C(=O)CCOS(C)(=O)=O
- T/C (dose: 3.13 mg/kg/injection, schedule: Q04DX003 (ip), vehicle: saline): 113 % of control
- T/C (dose: 6.25 mg/kg/injection, schedule: Q04DX003 (ip), vehicle: saline): 122 % of control
- T/C (dose: 264.0 mg/kg/injection, schedule: Q04DX003 (ip), vehicle: saline with Tween-80): 218 % of control
- T/C (dose: 400.0 mg/kg/injection, schedule: Q04DX003 (ip), vehicle: saline with Tween-80): 118 % of control

SMILES: c1ccc2cc3c(ccc4ccccc43)cc2c1
- T/C (dose: 25.0 mg/kg/injection, schedule: Q04DX003 (ip), vehicle: other): 99 % of control
- T/C [10]: 100 % of control
- T/C (dose: 50.0 mg/kg/injection, schedule: Q04DX003 (ip), vehicle: other): 104 % of control
- T/C [11]: 97 % of control
- T/C (dose: 100.0 mg/kg/injection, schedule: Q04DX003 (ip), vehicle: other): 99 % of control
- T/C [12]: 103 % of control
- T/C (dose: 200.0 mg/kg/injection, schedule: Q04DX003 (ip), vehicle: other): 96 % of control
- T/C (dose: 400.0 mg/kg/injection, schedule: Q04DX003 (ip), vehicle: other): 96 % of control

SMILES: COc1ccc2nc3c(=O)[nH]c(=O)nc-3n(CC(O)C(O)C(O)CO)c2c1 (stereo not drawn)
- T/C (dose: 25.0 mg/kg/injection, schedule: Q01DX001 (ip), vehicle: saline): 104 % of control
- T/C (dose: 50.0 mg/kg/injection, schedule: Q01DX001 (ip), vehicle: saline): 104 % of control
- T/C (dose: 100.0 mg/kg/injection, schedule: Q01DX001 (ip), vehicle: saline): 107 % of control
- T/C [13]: 109 % of control

SMILES: C1CCC2(CC1)C[Se]C2
- T/C (dose: 7.5 mg/kg/injection, schedule: Q01DX009 (ip), vehicle: saline with Tween-80): 108 % of control
- T/C (dose: 15.0 mg/kg/injection, schedule: Q01DX009 (ip), vehicle: saline with Tween-80): 113 % of control
- T/C (dose: 30.0 mg/kg/injection, schedule: Q01DX009 (ip), vehicle: saline with Tween-80): 105 % of control

SMILES: CNc1nc(SC)nc2c1ncn2C1CCCO1 (stereo not drawn)
- T/C [1]: 98 % of control
- T/C [2]: 95 % of control
- T/C (dose: 400.0 mg/kg/injection, schedule: Q04DX002 (ip), vehicle: saline with Tween-80): 95 % of control

SMILES: SC1(S)CCCN(Cc2ccccc2)C1
- T/C (dose: 25.0 mg/kg/injection, schedule: Q01DX005 (ip), vehicle: saline): 105 % of control
- T/C (dose: 50.0 mg/kg/injection, schedule: Q01DX005 (ip), vehicle: saline): 108 % of control
- T/C (dose: 100.0 mg/kg/injection, schedule: Q01DX005 (ip), vehicle: saline): 103 % of control
- T/C (dose: 200.0 mg/kg/injection, schedule: Q01DX005 (ip), vehicle: saline): 105 % of control

SMILES: Nc1ccc(S(=O)(=O)NC2C(O)OC(CO)C(O)C2O)cc1 (stereo not drawn)
- T/C [9]: 98 % of control
- T/C (dose: 100.0 mg/kg/injection, schedule: Q01DX005 (ip), vehicle: saline with Tween-80): 96 % of control
- T/C (dose: 200.0 mg/kg/injection, schedule: Q01DX005 (ip), vehicle: saline with Tween-80): 97 % of control

SMILES: CC1CC(=O)Nc2cc(C(F)(F)F)ccc2N1 (stereo not drawn)
- T/C [14]: 95 % of control
- T/C [15]: 99 % of control
- T/C [16]: 93 % of control

SMILES: O=C(N=c1nc2ccccn2s1)c1ccccc1
- T/C [10]: 100 % of control
- T/C [11]: 98 % of control
- T/C [12]: 104 % of control

SMILES: NCCc1cc(O)c(O)c(O)c1
- T/C [17]: 108 % of control and 109 % of control
- T/C (dose: 100.0 mg/kg/injection, schedule: Q01DX009 (ip), vehicle: saline): 117 % of control
- T/C (dose: 400.0 mg/kg/injection, schedule: Q01DX009 (ip), vehicle: saline): 153 % of control and 168 % of control

SMILES: CC(C)c1ccc(C(CC(=O)c2ccccc2)C(C(=O)O)c2ccccc2)cc1 (stereo not drawn)
- T/C [6]: 97 % of control
- T/C [7]: 89 % of control
- T/C [8]: 89 % of control

SMILES: O=C1C(=Cc2ccc(O)cc2)C(=O)c2ccccc21
- T/C [13]: 97 % of control
- T/C (dose: 200.0 mg/kg/injection, schedule: Q04DX002 (ip), vehicle: saline): 99 % of control
- T/C (dose: 400.0 mg/kg/injection, schedule: Q04DX002 (ip), vehicle: saline): 106 % of control

SMILES: c1cc2ccc3ccc(C4CO4)c4ccc(c1)c2c34 (stereo not drawn)
- T/C (dose: 6.25 mg/kg/injection, schedule: Q01DX009 (ip), vehicle: Klucel (hydroxypropylcellulose) (HPC)): 99 % of control
- T/C (dose: 12.5 mg/kg/injection, schedule: Q01DX009 (ip), vehicle: Klucel (hydroxypropylcellulose) (HPC)): 103 % of control
- T/C (dose: 25.0 mg/kg/injection, schedule: Q01DX009 (ip), vehicle: Klucel (hydroxypropylcellulose) (HPC)): 101 % of control

SMILES: CCCCCCCCCCOc1cc2c(=O)c(C(=O)OCC)c[nH]c2cc1OCC
- T/C [14]: 102 % of control
- T/C [15]: 98 % of control
- T/C [16]: 108 % of control

SMILES: CN1CCN(C#CC(=O)c2ccc(Cl)cc2)CC1
- T/C (dose: 7.5 mg/kg/injection, schedule: Q01DX005 (ip), vehicle: saline with Tween-80): 114 % of control
- T/C (dose: 15.0 mg/kg/injection, schedule: Q01DX005 (ip), vehicle: saline with Tween-80): 117 % of control

SMILES: C=CCC(C)(C#N)C1C=CCC1 (stereo not drawn)
- T/C (dose: 100.0 mg/kg/injection, schedule: Q01DX009 (ip), vehicle: saline sonified): 100 % of control
- T/C (dose: 200.0 mg/kg/injection, schedule: Q01DX009 (ip), vehicle: saline sonified): 100 % of control
- T/C (dose: 400.0 mg/kg/injection, schedule: Q01DX009 (ip), vehicle: saline sonified): 122 % of control

SMILES: CC1CC[N-]CC1.CC1CC[N-]CC1.CS(C)=O.[Cl][Rh]([Cl])[Cl]
- T/C (dose: 3.0 mg/kg/injection, schedule: Q01DX009 (ip), vehicle: saline with Tween-80): 104 % of control
- T/C (dose: 3.0 mg/kg/injection, schedule: Q04DX003 (ip), vehicle: saline with Tween-80): 104 % of control
- T/C (dose: 6.0 mg/kg/injection, schedule: Q01DX009 (ip), vehicle: saline with Tween-80): 95 % of control
- T/C (dose: 6.0 mg/kg/injection, schedule: Q04DX003 (ip), vehicle: saline with Tween-80): 100 % of control
- T/C (dose: 12.0 mg/kg/injection, schedule: Q01DX009 (ip), vehicle: saline with Tween-80): 95 % of control
- T/C (dose: 12.0 mg/kg/injection, schedule: Q04DX003 (ip), vehicle: saline with Tween-80): 109 % of control

SMILES: Cn1c[n+](C)nn1
- T/C (dose: 12.5 mg/kg/injection, schedule: Q01DX009 (ip), vehicle: saline): 91 % of control
- T/C (dose: 25.0 mg/kg/injection, schedule: Q01DX009 (ip), vehicle: saline): 97 % of control
- T/C [17]: 97 % of control
